How the values were obtained:
Format in all cases: in vivo
[1] = test system: rat; experiment: Acute toxicity, rat
Protocol: (§1) The tested substance(B-220), was administered daily with 6 mg/animal, a dose that can be increased since the margin to toxic effects is wide and most likely further reduce the symptoms. It is to be noted that the acute toxicity of the tested substance used according to the present invention is low, which is exemplified with the following: […]

[2] = test system: rabbit; experiment: Acute toxicity, cutaneous, rabbit
Protocol: as §1

[3] = test system: mice; experiment: Chronic toxicity on mice; settings: tested up to 270 days
[4] = test system: Lewis rats; experiment: EAE (experimental autoimmune encephalomyelitis) rat model for MS, clinical score; settings: for delay of onset / recovery starts earlier: FIG. 2, versus control

Cc1cc2nc3c4ccccc4n(CCN(C)C)c3nc2cc1C [B-220]
LD50 ([1]; intravenous): > 100 mg/kg bw
NOEL (No Observable Effect Level) ([1]; intravenous): 12.5 mg/kg bw
LD50 ([1]; oral): > 800 mg/kg bw
NOEL (No Observable Effect Level) [2]: 200 mg/kg bw
chronic toxicity [3]: has not induced toxicity
reduction of the CNS symptoms (clinical score) ([4]; FIG. 1, B-220 daily 6 mg/animal, Interferon-beta daily 3×10^5 U/animal, versus negative control): 2/3
delay of onset ([4]; 6 mg/animal): ~2 days
recovery starts earlier ([4]; 6 mg/animal): ~2 days
delay of onset ([4]; 12 mg/animal): ~4 days
recovery starts earlier ([4]; 12 mg/animal): ~3 days

From patent US20010046996A1, “Use of a compound for preparing a drug” (priority 2000, published 2001)
